The values that follow come from patent US7589100B2, “Non-hygroscopic and powdery amorphous pimecrolimus” (TEVA Gyógyszergyár Zártkörún Müködö Részvénytársaság, priority 2004, dated 2009).

This data set can be described thus: Hygroscopicity: water content (LOD) of samples stored at different relative humidity for one week. The format is physicochemical. From the text: As used herein, the term “non-hygroscopic” refers to a compound that contains no more than about 2% wt/wt of water, more preferably no more than about 1.5% wt/wt of water, most preferably no more than about 1% wt/wt of water, when exposed to 80% humidity, at room temperature for 1 week. The hygroscopicity of amorphous pimecrolimus of the present invention was examined by measuring the water content in samples stored at different relative humidity value (RH) (0, 40, 60, and 80 percent) for a period of one week.

With `CC[C@@H]1/C=C(\C)C[C@H](C)C[C@H](OC)[C@H]2O[C@@](O)(C(=O)C(=O)N3CCCC[C@H]3C(=O)O[C@H](/C(C)=C/[C@@H]3CC[C@H](Cl)[C@H](OC)C3)[C@H](C)[C@@H](O)CC1=O)[C@H](C)C[C@@H]2OC` [Pimecrolimus, (1R,9S,12S,13R,14S,17R,18E,21 S,23S,24R,25S,27R)-12-[(1E)-2-{(1R,3R,4S)-4-chloro-3-methoxycyclohexyl}-1-methylvinyl]-17-ethyl-1,14-dihydroxy-23,25-dimethoxy-13,19,21,27-tetramethyl-11,28-dioxa-4-aza-tricyclo[22.3.1.0^4,9]octacos-18-ene-2,3,10,16-tetraone], under “RH 0 to 80 percent, one week”, the “hygroscopicity (result in words)” value was “non-hygroscopic”. Also, the “LOD (%)” value reads like this: (original sample, before storage) 1.1%; (stored at RH 0 % for one week) 0.8%; (stored at RH 40 % for one week) 1.1%; (stored at RH 60 % for one week) 1.1%; (stored at RH 80 % for one week) 1.1%. In addition, the “water content of the samples” value (stored at relative humidity from about 0 percent to about 80 percent, one week) is reported as “about 1%”.
